From patent publication US20200376068A1, “PROTECTION OF NORMAL TISSUE IN CANCER TREATMENT” (THOMAS JEFFERSON UNIVERSITY, priority 2017, published 2020)
Bridge positions count the residues as written; N and C are the ends. Ends that are not written are not given here. Peptide text beside a SMILES is read from it.

Tests used:
[1] = tested on: intestinal stem cells (ISCs); assay: Quantification of crypt Lgr5+GFP+ and Bmi1+ stem cells in Gucy2c−/− mice; type: in vivo, mouse
Experimental: (§1) Gucyc^−/− (Glucy2^ctm1Gar[63]), Lgr5-EGFP-CreERT2 (B6.129P2-Lgr5^tm1(cre/ERT2)Cle/J; Jax, Bar Harbor, Me., #008875) and Rosa-STOP^fl-LacZ (B6.129S4-Gt(ROSA)26Sor^tm1Sor/J; Jax #003474) transgenic mouse lines were interbred to generate offspring with the desired alleles. All mice were co-housed and Gucy2c^+/+ (wild type) littermates with the appropriate alleles were used as controls. Tissues were harvested from adult mice (12-16 wk of age). Cre was induced with a single 200 μL dose of tamoxifen (Sigma; Billerica, Mass.; T5648) in sunflower oil at 10 mg/ml. Tauroursodeoxycholic Acid (TUDCA, Millipore 580549) treatments were administered daily for 3 d at 100 mg/kg/day intraperitoneally. Mice were exposed to a single 10 Gy dose of whole-body γ-irradiation with a PanTak, 310 kVe x-ray machine and tissues were harvested at noted time points after irradiation. In some experiments, mice were gavaged daily for 7 d with 100 μL of 20 mM 8-cpt-cGMP. Each point in a graph (n) represents one mouse unless otherwise noted. All animal protocols were approved by the Thomas Jefferson University Institutional
Intestines were harvested from mice, fixed in formalin, and embedded in paraffin as previously described. Sections (4 μM) were cut then rehydrated in a sequential ethanol-to-water bath and stained with hematoxylin and eosin or antigen-specific primary and secondary antibodies. Primary antibodies for immunofluorescence included: anti-GFP, anti-Bmi1, and anti-GRP78 (Abcam; Cambridge, M A); anti-phospho VASP Ser239 (Sigma; Billerica, Mass.); and anti-GUCY2C (prepared and validated in-house). Secondary antibodies were from Life Technologies (Waltham, Mass.) and specific to the primary hosts. Tyramide signal amplification was used to detect GUCY2C; secondary antibodies conjugated to horseradish peroxidase were from Jackson immunoresearch Laboratories (cat #115-035-206 and #111-036-046, 1:1000 dilution), and fluorescein-conjugated tyramine was prepared from tyramine HCl (cat #T2879, Sigma) and NHS-fluorescein (cat #46410, Thermo Scientific) as described. For visualization of Rosa-LacZ lineage tracing, tamoxifen-induced recombinant Cre intestines were prepared as described previously. At least 4 intestinal circumference sections were evaluated per mouse.

[2] = tested on: p53-Mdm2 interaction; assay: Immunoprecipitation of p53-Mdm2 in irradiated HCT116 cells; type: cell-based, human; details: 5 Gy radiation, IP and Western Blot
Experimental: McCoy's 5A and Dulbecco's Modified Eagle Medium (DMEM) containing 10% fetal bovine serum and other reagents for cell culture were obtained from Life Technologies (Rockville, Md.). 8-Bromoguanosine 3′, 5′-cyclic monophosphate (8-Br-cGMP), a cell-permeant analog of cGMP, was obtained from Sigma (St. Louis, Mo.) and 500 μM was used in all experiments (18,20,25,26,34).
Mouse IgG (5 μg, cat. #10400C, Invitrogen) and rabbit IgG (5 μg, cat. #10400C, Invitrogen) were isotype controls for immunoprecipitation.

[3] = tested on: Grp78 (BiP); assay: Crypt ER stress, Grp78 (BiP) expression; type: in vivo, mouse; details: Gucy2c−/− mice
Experimental: as §1
Intestines were harvested from mice, fixed in formalin, and embedded in paraffin as previously described. […] At least 4 intestinal circumference sections were evaluated per mouse.

[4] = tested on: HCT116 human colon carcinoma cells (parental); assay: Anaphase bridge index and aneuploidy after 5 Gy; type: cell-based; details: pretreatment 500 μM
Experimental: (§2) Cells preconditioned with 8-Br-cGMP, or control cells, were irradiated (5 Gy), then seeded on coverslips in 24-well plates (5×10^4 cells per well). ABI and aneuploidy were quantified 2 d after irradiation.
(§3) ABI: Cells were fixed in 4% PFA and stained with DAPI. Anaphase cells were analyzed and abnormal anaphase cells were calculated under a fluorescence microscope. More than 200 anaphase cells were analyzed in each treatment group in each independent experiment. Any abnormal anaphase cells with anaphase bridges or anaphase lag showing extended chromosome bridging between two spindle poles were enumerated and the ABI was calculated as percentage of abnormal anaphase cells over total anaphase cells.
(§4) Aneuploidy: Cells were fixed in 4% PFA and stained with DAPI, and immunofluorescence stains were performed using α/β-tubulin-specific antibodies and […] γ-tubulin antibodies, detected with Alexa Fluor® 555 or Alexa Fluor® 488 labeled secondary antibodies from Invitrogen. […] Abnormal anaphase chromatids were counted if cells contained more than two centrosomes or two centrosomes located in the same direction to the spindle midzone separated from kinetochores at the poles.

[5] = tested on: p53; assay: Immunoblot of total and phosphorylated p53 in irradiated HCT116 cells; type: cell-based, human; details: 5 Gy radiation, 500 μM
[6] = tested on: HCT116 p53-null cells; assay: Anaphase bridge index and aneuploidy after 5 Gy; type: cell-based, human; details: pretreatment 500 μM
Experimental: as §2, §3, §4

[7] = tested on: HCT116 cells (parental); assay: Colony formation assay after irradiation; type: cell-based, human; details: parental HCT116, 0-4 Gy, 500 μM for 7 d before and after irradiation, vs PBS
Experimental: (§5) HCT116 and HCT116 p53-null cells were plated in 6-well dishes at 1×10^4 cells/well followed by treatment for 7 d with vehicle or cell permeable cGMP (8-Br-cGMP, 500 μM). Media containing different treatments were changed every other day. After exposure to radiation (0-4 Gy) cells were trypsinized and plated in 6-well dishes at different densities depending on the potency of the treatments (10^4 cells/well for HCT116 exposed at 0, 1 and 2 Gy; 4×10^4 cells/well for HCT116 p53-null exposed at 0, 1 and 2 Gy; 50×10^4 cells/well for HCT116 exposed at 3 and 4 Gy; 200×10^4 cells/well for HCT116 p53-null exposed at 3 and 4 Gy). […] The number of colonies, defined as >50 cells/colony were counted, and the surviving fraction was calculated as the ratio of the number of colonies in the treated sample to the number of colonies produced by cells that were not irradiated. […]
(§6) Statistical significance was determined by unpaired two-tailed Student's t test unless otherwise indicated. […] Survival and disease-free survival were analyzed by Kaplan-Meier analysis. Body weight was analyzed using a frailty model combining a segmented linear longitudinal model of body weight, a log-normal model for survival time, and a log-normal model for random break point for body weight (inflection point). […] Colony formation was analyzed by a pairwise comparison in four treatments with isotherm slopes by linear regression.

[8] = tested on: HCT116 p53-null cells; assay: Colony formation assay after irradiation; type: cell-based, human; details: 0-4 Gy, 500 μM, vs PBS
Experimental: as §5, §6

[9] = cited from earlier work
[10] = tested on: patients with irritable bowel syndrome; details: oral; cited from earlier work
[11] = tested on: intestinal crypts; assay: Ex vivo enteroid formation from crypts; type: cell-based, mouse; details: crypts of Gucy2c+/+ mice, oral linaclotide
Experimental: Crypt isolation for subsequent analyses (enteroid assay, florescence-activated cell sorting (FACS), immunoblot) was performed using a variation of the chelation dissociation method. Briefly, intestines were harvested, villi were gently scraped off for the small intestine, and tissues were minced and incubated in a 10 mM EDTA/Ca-free, Mg-free Hank's Balanced Salt Solution (HBSS) on ice for a total of 40 min, Throughout this time, solutions were intermittently shaken by hand at the speed of two shakes/second, supernatant was disposed a total of six times, and fresh EDTA/HBSS was added after each disposal. Tissue was incubated undisturbed for 30 min on ice followed by vigorous pipetting with a 10 mL pipet to dissociate the remaining crypts. Crypts were filtered through a […] strainer and pelleted. For enteroid culture, the same number of crypts for each genotype (ranging from 300-1500 crypts/well) were resuspended in a matrigel droplet (BD, 354230), pipetted briefly with a 1000 μL micropipette, plated in 30 μL, and overlaid with 350 μL of intesticult media (Stem Cell Technologies, Vancouver. Canada: 06005). For FACS, crypts were incubated in 0.25% trypsin (Thermo Scientific, Philadelphia, Pa.; 15050065) at 37° C. until a single cell suspension was obtained (not more than 10 min). Cells were then filtered a second time using a 40 μM strainer and kept in EDTA solution for sorting.

[12] = biological target: guanylate cyclase (ST receptors) (Homo sapiens, UniProt P25092); details: relative to native ST; cited from earlier work
Sequence of guanylate cyclase (ST receptors) (P25092 24-1073): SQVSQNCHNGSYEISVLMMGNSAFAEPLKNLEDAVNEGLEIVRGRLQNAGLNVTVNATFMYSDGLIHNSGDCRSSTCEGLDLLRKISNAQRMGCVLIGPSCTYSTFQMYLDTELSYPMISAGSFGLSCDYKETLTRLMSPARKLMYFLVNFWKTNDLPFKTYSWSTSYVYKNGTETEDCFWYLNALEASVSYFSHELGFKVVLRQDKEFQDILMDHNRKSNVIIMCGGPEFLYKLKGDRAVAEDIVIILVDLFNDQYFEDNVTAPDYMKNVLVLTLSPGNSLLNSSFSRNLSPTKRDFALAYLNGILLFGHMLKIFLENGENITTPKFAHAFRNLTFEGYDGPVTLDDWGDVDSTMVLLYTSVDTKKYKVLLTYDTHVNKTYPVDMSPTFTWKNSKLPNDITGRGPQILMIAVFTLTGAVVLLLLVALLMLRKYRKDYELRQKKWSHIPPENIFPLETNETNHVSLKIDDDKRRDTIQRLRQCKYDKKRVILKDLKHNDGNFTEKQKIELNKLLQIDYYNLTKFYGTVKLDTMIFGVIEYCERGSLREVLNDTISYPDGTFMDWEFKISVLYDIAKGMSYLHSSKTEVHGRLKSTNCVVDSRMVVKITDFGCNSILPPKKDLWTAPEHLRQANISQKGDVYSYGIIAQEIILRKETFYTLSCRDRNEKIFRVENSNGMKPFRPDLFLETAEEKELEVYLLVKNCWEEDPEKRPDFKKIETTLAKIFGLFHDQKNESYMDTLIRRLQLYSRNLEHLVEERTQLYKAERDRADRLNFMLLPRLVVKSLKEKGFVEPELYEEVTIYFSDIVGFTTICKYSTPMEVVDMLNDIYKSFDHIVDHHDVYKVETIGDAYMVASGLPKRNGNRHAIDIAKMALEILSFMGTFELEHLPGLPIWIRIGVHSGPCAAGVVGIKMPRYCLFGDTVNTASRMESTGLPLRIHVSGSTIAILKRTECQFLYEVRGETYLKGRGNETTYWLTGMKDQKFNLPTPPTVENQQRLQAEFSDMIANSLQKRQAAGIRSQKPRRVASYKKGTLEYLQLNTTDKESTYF

[13] = tested on: irradiated intestinal tissue; details: mice lacking genes encoding GCC or uroguanylin; cited from earlier work

Nc1nc2c(nc(Br)n2[C@@H]2O[C@@H]3COP(=O)(O)O[C@H]3[C@H]2O)c(=O)[nH]1 [8-Br-cGMP, 8-Bromoguanosine 3′, 5′-cyclic monophosphate]
Bmi1+ cells in crypts [1]: comparable to those in Gucy2c^+/+ mice | Lgr5+GFP+ cells in crypts [1]: comparable to those in Gucy2c^+/+ mice | p53-Mdm2 interaction [2]: disrupting | p53 activation [2]: increased | BiP (Grp78) expression in crypts [3]: mimicked | chromosomal instability quantified by anaphase bridge index [4]: reduced | chromosomal instability quantified by centrosome counts (aneuploidy) [4]: reduced | phosphorylated p53 [5]: increased | total p53 [5]: increased | chromosomal instability quantified by anaphase bridge index [6]: insensitive | chromosomal instability quantified by centrosome counts (aneuploidy) [6]: insensitive | cytogenetic toxicity induced by increasing doses of radiation, quantified by colony formation [7]: reduced | cytogenetic toxicity induced by increasing doses of radiation, quantified by colony formation [8]: not significant

C[C@H](CCC(=O)NCCS(=O)(=O)O)[C@H]1CC[C@H]2[C@@H]3[C@@H](O)C[C@@H]4C[C@H](O)CC[C@]4(C)[C@H]3CC[C@]12C [TUDCA, tauroursodeoxycholic acid]
Bmi1+ cells in crypts [1]: restored | Lgr5+GFP+ cells in crypts [1]: restored | BiP (Grp78) expression in crypts [3]: restored normal BiP expression

C[C@@H]1NC(=O)[C@@H]2CCCN2C(=O)[C@H](CC(N)=O)NC(=O)[C@@H]2CSSC[C@H](N)C(=O)N[C@H]3CSSC[C@H](NC1=O)C(=O)N[C@@H]([C@@H](C)O)C(=O)NCC(=O)N[C@H](C(=O)N[C@@H](Cc1ccc(O)cc1)C(=O)O)CSSC[C@H](NC(=O)[C@H](Cc1ccc(O)cc1)NC(=O)[C@H](CCC(=O)O)NC3=O)C(=O)N2 [linaclotide] (H-CCEYCCNPACTGCY-OH; disulfide 1-6, 2-10, 5-13)
oral bioavailability or bioactivity outside the GI tract [9]: negligible | abdominal pain [10]: relieve | constipation [10]: improve | efficiency of enteroid formation [11]: amplified

CC(C)C[C@H](NC(=O)[C@@H]1CSSC[C@@H]2NC(=O)[C@H](CC(C)C)NC(=O)[C@H](CCC(=O)O)NC(=O)[C@@H](NC(=O)[C@H](CCC(=O)O)NC(=O)[C@H](CC(=O)O)NC(=O)[C@@H](N)CC(N)=O)CSSC[C@H](NC(=O)[C@H](C)NC(=O)[C@H](C(C)C)NC(=O)[C@H](CC(N)=O)NC(=O)[C@H](C(C)C)NC2=O)C(=O)N[C@@H]([C@@H](C)O)C(=O)NCC(=O)N1)C(=O)O [plecanatide] (H-NDECELCVNVACTGCL-OH; disulfide 4-12, 7-15)
oral bioavailability or bioactivity outside the GI tract [9]: negligible | abdominal pain [10]: relieve | constipation [10]: improve

Guanylin: 15 amino acid peptide from mammalian intestine, about 50% sequence homology to ST; endogenous GCC agonist (PGTCEICAYAACTGC; ends and bridges not checked; cysteine pairing not given here; UniProt Q02747 101-115, looked up)
activates guanylate cyclase at a level less than native ST [12]: 10- to 100 fold

cGMP
level of apoptosis in irradiated intestinal tissue [13]: ameliorated
